The text below walks through data of a melting point compilation (Tetko et al.).

A value given as a limit tells only on which side of the number the result lay.

For `COc1cccc(C=C[N+](=O)[O-])c1`, the melting point (usually the temperature, or range, at which the solid turns liquid) fell in the range of 91 to 93 °C. The result for `N#Cc1ccnc(C#N)c1` reads 90 °C; that for `O=C1OC(c2ccccc2)=N/C1=C\c1cccc(/C=C2\N=C(c3ccccc3)OC2=O)c1`, 247 °C; that for `C=C(C)C(C)=O`, -54 °C. The result for `CCC1Oc2ccccc2C(=O)NC1=O` (stereo unspecified) reads 162 to 164 °C; that for `O=C(O)c1ccc2c(c1)OCCOCCOCCOCCOCCO2`, 121 to 126 °C. In turn, `CC(=O)c1ccc(C#Cc2ccccc2)cc1` returned a melting point of 101 °C. Under `NCc1ccc(CN2CCOCC2)cc1` stands 54 to 55 °C; under `O=C1NC(=O)C(Cl)C(=O)N1`, 320 °C. Under `CCCCCCCCCCCCN(CCCCCCCCCCCC)CCCCCCCCCCCC` stands 16 °C; under `NC(=S)c1ccc(C2OCCO2)cc1`, 150 to 154 °C.

Take `Cn1cncc1CC1COC(=O)C1C(O)c1ccccc1` (stereo unspecified): the melting point was 179 °C. Under `O=Cc1ncc[nH]1` stands 209 °C.

The compound `C=C1CCC2(O)C3Cc4ccc(O)c5c4C2(CCN3CC2CC2)C1O5` (stereo unspecified) gave a melting point of 189 °C. `Cc1ccc(S(=O)(=O)OCC2CO2)cc1` (stereo unspecified) came in with a melting point of 45 to 48 °C. With `COC(=O)c1c(C(=O)OC)c(-c2ccccc2)c2c(Cl)nc(Cl)cc2c1Sc1ccccc1`, the melting point came to 178 °C. As for `CC(=O)Nc1ccc(C#N)cc1OC(F)(F)F`, the melting point was in the range of 118 to 120 °C. Consider `Brc1cncc(Br)c1`, for which the melting point came out at 112 °C.

`CC/C(=C(/CC)c1ccc(O)cc1)c1ccc(O)cc1` had a melting point of 172 °C. The result for `CC(CC(=O)c1ccc(Cl)cc1)C(=O)O` (stereo unspecified) reads 137 to 139 °C. Compound `Nc1nc2ccccc2n1Cc1ccc(Cl)cc1` registered a melting point of 197 to 199 °C. `Brc1cc(Br)c(Oc2cc(Br)c(Br)cc2Br)c(Br)c1` gave a melting point of 131 to 132 °C. Under `CCCCCOC(=O)CCCCC` stands -47 °C; under `Cc1nccc2ccccc12`, 10 °C. The result for `Cc1cc(C)cc(S(=O)(=O)Cl)c1` reads 93 °C; that for `Cc1oc(-c2ccccc2)nc1CCO`, 72 to 75 °C. The compound `CCOC(=O)CCC(C)C1CCC2C3C(=O)CC4CC(=O)CCC4(C)C3CC(=O)C12C` (stereo unspecified) had a melting point of 222 °C.

For the compound `CC(=O)c1cc2cc(Br)ccc2o1`, the melting point turned out to be 111 °C. In turn, `CC=C(CC)C(=O)NC(N)=O` registered a melting point of 198 °C.

`COc1ccc(-n2c(S)nnc2-c2ccc(OC(F)(F)F)cc2)cc1` displayed a melting point of 178 to 180 °C.

`O=COc1ccc([N+](=O)[O-])cc1` came in with a melting point of 72 °C. Under `Clc1ccc(C2NN=C3c4ccccc4CCC32)cc1` (stereo unspecified) stands 181 to 184 °C; under `O=C(CC(=O)c1ccccc1O)c1ccccc1`, 120 °C. Under `OCC1OC(SCCc2ccccc2)C(O)C(O)C1O` (stereo unspecified) stands 100 °C; under `Cc1c(/N=C/c2cc(Br)cc(Br)c2O)c(=O)n(-c2ccccc2)n1C`, 228 °C. Compound `COC(=O)c1cocc1C(=O)OC` showed a melting point of 42 to 47 °C. In turn, `CCOc1ccc(NC(=O)C(C(F)(F)F)C(F)(F)F)cc1` yielded a melting point of 181 °C. Compound `CCN(CC)C(=O)N1CCN(C)CC1` came in with a melting point of 48 °C. Under `COC(=O)c1ccc(N2CCCCC2)nc1` stands 70 to 72 °C; under `O=C(Cl)c1nccs1`, 54 to 58 °C. `O=[N+]([O-])c1ccc(-c2nnc3n2CN(c2ccccc2)CS3)cc1` had a melting point of more than 320 °C.

`COc1cc(C(=O)O)c([N+](=O)[O-])cc1OC`: the melting point lay within 195 to 197 °C. For `O=Cc1c2ccccc2cc2ccccc12`, the melting point worked out at 105 °C.

In turn, `CCOC(=O)c1ccccc1O` registered a melting point of 2 to 3 °C.

For `Cc1cnc(O)c(Br)c1`, the melting point stood at 157 °C. As to `COc1ccc(C(=O)CC(=O)C(F)(F)F)cc1`, the melting point was 57 to 58 °C. As to `Nc1cc(C(F)(F)F)ccc1N1CCCC1`, the melting point fell in the range of 33 to 35 °C. Under `NCC(=O)NCC(=O)O` stands 262 to 264 °C; under `CC1CCCC1=O` (stereo unspecified), -75 °C. Under `O=Cc1cccc2ncccc12` stands 96 °C.

As to `CCc1c(Br)c(Br)c(Br)c(Br)c1Br`, the melting point was 138 °C. Take `O=Nc1ccc2ccccc2c1O`: the melting point lay within 156 to 158 °C. Compound `Cc1nc(-c2ccc(S(=O)(=O)NN)cc2)c(-c2ccc(S(=O)(=O)NN)cc2)o1` displayed a melting point of 178 to 180 °C. Under `Cc1ccc(NC(=O)C(F)(F)C(F)(F)C(F)(F)C(F)(F)C(F)(F)C(F)(F)C(F)(F)C(F)(F)F)c(C)c1` stands 83 °C; under `O=C(O)Cc1cc(I)c(Oc2ccc(O)c(I)c2)c(I)c1`, 182 °C; under `CN(N=Cc1ccc(F)cc1)P(=O)(N1CC1)N1CC1`, 106 °C. `CS[C@H]1C(=O)[C@@H]2CC[C@]3(C)[C@@H](OC(C)(C)C)CC[C@]13[C@H]2Cl`: the melting point came out at 108 °C. The result for `Nc1ccc2c(c1)COCO2` reads 69 °C; that for `Cc1c(Cl)ccc([N+](=O)[O-])c1Cl`, 54 °C; that for `NC(=O)OCCCl`, 75.5 °C. Under `Cn1ncc2c(NCCOC(=O)c3cc([N+](=O)[O-])cc([N+](=O)[O-])c3)ncnc21` stands 299 °C; under `O=C(Cl)c1ccc(Oc2cc(Cl)cc(Cl)c2)o1`, 60 to 62 °C.

The compound `C/C(=C\C(=O)c1ccc(F)cc1)c1ccc(F)cc1` came in with a melting point of 51 °C. The compound `N#CCCSCCC#N` gave a melting point of 24 to 25 °C. `Clc1ccc2nccnc2c1` yielded a melting point of 64 °C. Turning to `Nc1ccc(OC2CCOCC2)cc1`, the melting point was in the range of 71 to 73 °C. Regarding `CCCCCCC(=O)CC`, the melting point is -8 °C.

Consider `CCCCCCCCC(=O)Oc1ccc(/N=N/c2ccc(CCCC)cc2)cc1`, for which the melting point lay within 50 to 53 °C. For `CS(=O)(=O)c1ccc(S(=O)(=O)Cl)cc1`, the melting point was 160 °C.

As to `NC1=C(c2ccccc2)C(=O)c2ccccc21`, the melting point was 270 to 273 °C.

With `COc1ccc([N+](=O)[O-])c2ccccc12`, the melting point is 81 to 85 °C. `CC(=O)CCC(C)C` came in with a melting point of -74 °C. As to `O=C(O)C=Cc1ccc2c(c1)OCO2`, the melting point was in the range of 242 to 244 °C. The result for `CC1=CC=CC2Cc3ccccc3C(=O)N12` (stereo unspecified) reads 98 °C; that for `O=C(O)c1cnccn1`, 222 to 225 °C; that for `CC(C)(C)c1ccc(-c2nnc(S)n2Cc2ccco2)cc1`, 156 to 158 °C. The result for `CCOC(=O)C1(c2ccccc2)CCN(CCc2ccc(N)cc2)CC1` reads 83 °C; that for `CCCCC(CC)CCl` (stereo unspecified), -70 °C. The result for `OCC1OC(n2cnc3c(S)ncnc32)C(O)C1O` (stereo unspecified) reads 218 to 221 °C; that for `N#Cc1ccc(F)cc1C#N`, 101 °C. With `ICCCCCI`, the melting point is 9 °C.
